Experimental data published in ChEMBL document CHEMBL3272000, “Local anesthetics. 2-Diethylamino-2',6'-acylxylidides” (J Med Chem, 1976).

Experiments:
[1] = Toxicity in ip dosed rat; format: organism-based; settings: in vivo
Rattus norvegicus [2] = assay: Local anesthetic activity in rat assessed as frequency of motor activity block at 0.125 % injected around sciatic nerve; format: functional
Rattus norvegicus [3] = assay: Local anesthetic activity in rat assessed as frequency of motor activity block at 2 % injected around sciatic nerve; format: functional
[4] = Ionization constant, pKa of the compound; format: physicochemical
Rattus norvegicus [5] = assay: Local anesthetic activity in rat assessed as time duration of motor activity block at 1 % injected around sciatic nerve; format: functional
Rattus norvegicus [6] = assay: Local anesthetic activity in rat assessed as frequency of motor activity block at 0.50 % injected around sciatic nerve; format: functional
Rattus norvegicus [7] = assay: Local anesthetic activity in rat assessed as frequency of motor activity block at 1 % injected around sciatic nerve; format: functional
Rattus norvegicus [8] = assay: Local anesthetic activity in rat assessed as time duration of motor activity block at 2 % injected around sciatic nerve; format: functional
Rattus norvegicus [9] = assay: Local anesthetic activity in rat assessed as time duration of motor activity block at 0.25 % injected around sciatic nerve; format: functional
Rattus norvegicus [10] = assay: Local anesthetic activity in rat assessed as frequency of motor activity block at 0.25 % injected around sciatic nerve; format: functional
Rattus norvegicus [11] = assay: Local anesthetic activity in rat assessed as time duration of motor activity block at 0.125 % injected around sciatic nerve; format: functional
Rattus norvegicus [12] = assay: Local anesthetic activity in rat assessed as time duration of motor activity block at 0.50 % injected around sciatic nerve; format: functional

## CCN(CC)C(C)C(=O)Nc1c(C)cccc1C (stereo unspecified)
[1]
  LD50: 89 mg/kg
Rattus norvegicus [2]
  Activity: 100%
Rattus norvegicus [3]
  Activity: 100%
[4]
  pKa: 8.12
Rattus norvegicus [5]
  Time: 114 min
Rattus norvegicus [6]
  Activity: 100%
Rattus norvegicus [7]
  Activity: 100%
Rattus norvegicus [8]
  Time: 160 min
Rattus norvegicus [9]
  Time: 92 min
Rattus norvegicus [10]
  Activity: 100%
Rattus norvegicus [11]
  Time: 82 min
Rattus norvegicus [12]
  Time: 104 min

## CCC(C(=O)Nc1c(C)cccc1C)N(CC)CC.Cl (stereo unspecified)
[1]
  LD50: 54 mg/kg
Rattus norvegicus [2]
  Activity: 100%
Rattus norvegicus [3]
  Activity: 100%
[4]
  pKa: 7.91
Rattus norvegicus [5]
  Time: 308 min
Rattus norvegicus [6]
  Activity: 100%
Rattus norvegicus [7]
  Activity: 100%
Rattus norvegicus [8]
  Time: 318 min
Rattus norvegicus [9]
  Time: 235 min
Rattus norvegicus [10]
  Activity: 100%
Rattus norvegicus [11]
  Time: 156 min
Rattus norvegicus [12]
  Time: 297 min

## CCCCC(C(=O)Nc1c(C)cccc1C)N(CC)CC.Cl (stereo unspecified)
[1]
  LD50: 44 mg/kg
Rattus norvegicus [2]
  Activity: 80%
Rattus norvegicus [3]
  Activity: 80%
[4]
  pKa: 7.81
Rattus norvegicus [5]
  Time: 196 min
Rattus norvegicus [6]
  Activity: 100%
Rattus norvegicus [7]
  Activity: 100%
Rattus norvegicus [8]
  Time: 246 min
Rattus norvegicus [9]
  Time: 111 min
Rattus norvegicus [10]
  Activity: 60%
Rattus norvegicus [11]
  Time: 92 min
Rattus norvegicus [12]
  Time: 119 min

## CCCC(C(=O)Nc1c(C)cccc1C)N(CC)CC.Cl (stereo unspecified)
[1]
  LD50: 51 mg/kg
Rattus norvegicus [2]
  Activity: 100%
Rattus norvegicus [3]
  Activity: 100%
[4]
  pKa: 7.89
Rattus norvegicus [5]
  Time: 179 min
Rattus norvegicus [6]
  Activity: 100%
Rattus norvegicus [7]
  Activity: 100%
Rattus norvegicus [8]
  Time: 268 min
Rattus norvegicus [9]
  Time: 123 min
Rattus norvegicus [10]
  Activity: 100%
Rattus norvegicus [11]
  Time: 117 min
Rattus norvegicus [12]
  Time: 140 min

## CCN(CC)CC(=O)Nc1c(C)cccc1C [LIDOCAINE]
Rattus norvegicus [3]
  Activity: 100%
Rattus norvegicus [5]
  Time: 162 min
Rattus norvegicus [6]
  Activity: 100%
Rattus norvegicus [7]
  Activity: 100%
Rattus norvegicus [8]
  Time: 185 min
Rattus norvegicus [9]
  Time: 102 min
Rattus norvegicus [10]
  Activity: 100%
Rattus norvegicus [12]
  Time: 123 min
